Laboratory results: patent US20060025484A1 (priority 2003, published 2006)
“And” between values parts separate entries of the source, which are not always exact repeats. Identical values can stand only once.

Tests used:
pancreatic carcinoma = assay: Clinical phase II study in patients with pancreatic cancer; assay type: in vivo, human; set-up: key to Effect: partial remission (PR); minor response (MR)
From the text: • Pancreatic carcinoma • Clinical study: • Phase II: ¼ partial remission (PR) (44 weeks)
+1 minor response (MR) (23 weeks)
A minor response was obtained in another patient.

pancreas lines = assay: In-vitro experiments with various pancreas lines; assay type: cell-based
Method: Inhibiting effects in the low μg/mL range were also found in in-vitro experiments conducted with various pancreas lines, an inhibiting effect normally being achieved with an HECNU concentration of less than 10 μg/mL.

[1] = system: tumors of the head and neck; assay: In-vitro experiments on tumors of the head and neck; assay type: cell-based
[2] = system: human tumor xenograft models; assay: Subcutaneously implanted human tumor xenograft models in the naked mouse; assay type: in vivo; conditions: s.c. human xenografts: soft tissue sarcomas, testicular tumors, thymomas, melanomas, mammary carcinomas, lung tumors, Wilms' tumors, renal carcinomas
From the text: Furthermore, the activity of HECNU has also been investigated in a number of subcutaneously implanted human tumor xenograft models in the naked mouse. […] These included soft tissue sarcomas, testicular tumors, thymomas, melanomas, mammary carcinomas, tumors of the lung, Wilms' tumors and renal carcinomas.

Water solubility = assay type: physicochemical
From the text: (§1) It is known that bis-(2-chloroethyl)-1-nitrosourea (hereinafter also referred to as BCNU) can be used in the treatment of various types of cancer. BCNU is lipophilic but it has a low solubility in water, so that additional solvents such as ethanol must be used in application. […] There has therefore been a search for alternatives to BCNU.

[3] = Organ toxicity (bone marrow, lungs, kidney); assay type: in vivo; conditions: in comparison with BCNU
From the text: as §1
(§2) It is assumed that this is attributable to the fact that when HECNU is used, there cannot be any carbamoyl reactions in the body because no carbamoylating metabolite is formed in its degradation in the body.

glutathione reductase = biological target: T1, glutathione reductase (Homo sapiens, UniProt P00390); assay: Inhibition of glutathione reductase in the lungs; assay type: biochemical
T1 construct: from tissue; host or cells: lungs
T1 sequence (P00390 44-522): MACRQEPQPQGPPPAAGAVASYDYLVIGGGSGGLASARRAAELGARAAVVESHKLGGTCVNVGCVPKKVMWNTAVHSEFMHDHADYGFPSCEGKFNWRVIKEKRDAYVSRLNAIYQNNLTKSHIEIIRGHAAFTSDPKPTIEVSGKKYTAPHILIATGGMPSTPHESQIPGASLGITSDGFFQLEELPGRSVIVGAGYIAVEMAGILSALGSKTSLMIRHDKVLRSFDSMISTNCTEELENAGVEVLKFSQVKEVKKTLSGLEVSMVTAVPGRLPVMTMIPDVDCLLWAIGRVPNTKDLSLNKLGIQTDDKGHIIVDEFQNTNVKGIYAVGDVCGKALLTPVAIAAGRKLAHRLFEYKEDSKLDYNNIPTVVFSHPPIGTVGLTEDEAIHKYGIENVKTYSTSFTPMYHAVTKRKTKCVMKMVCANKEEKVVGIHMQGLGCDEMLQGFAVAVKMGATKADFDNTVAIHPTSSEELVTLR
From the text: as §2

Carcinogenicity = assay type: in vivo; conditions: in comparison with BCNU
From the text: as §2

[4] = Gastrointestinal toxicity in patients; assay type: in vivo, human; conditions: nausea and vomiting in patients
gastric carcinomas = conditions: phase II; cited from earlier work
colorectal carcinoma = conditions: phase II; cited from earlier work
malignant brain tumors = conditions: phase II; cited from earlier work
[5] = system: malignant supratentorial gliomas; conditions: cited from earlier work
[6] = single patient with pancreas tumor, dose 100 mg/m^2

## O=NN(CCCl)C(=O)NCCO [HECNU, 1-(2-chloroethyl)-1-nitroso-3-(2-hydroxyethyl)urea]
Pancreatic carcinoma; four treated patients with pancreatic cancer
  Partial remission, share of treated patients: ¼
Pancreatic carcinoma; [6]
  Effect: PR and MR
  Time to P (weeks): 44 weeks and 23 weeks
Pancreas lines
  HECNU concentration achieving an inhibiting effect: less than 10 μg/mL
[1]
  Inhibiting effect in vitro: an inhibiting effect was also achieved
[2]
  Inhibiting effect on tumor growth: good to very good inhibiting effects on tumor growth
Water solubility
  Water solubility: good water solubility
[3]
  Bone marrow, pulmonary and renal toxicity: greatly reduced bone marrow toxicity, pulmonary toxicity and renal toxicity
Glutathione reductase
  Inhibition of glutathione reductase: does not inhibit glutathione reductase
Carcinogenicity
  Carcinogenicity: much weaker carcinogen than BCNU
[4]
  Gastrointestinal toxicity: only a low gastrointestinal toxicity
Gastric carcinomas
  Partial remission, patients treated: 31%
Colorectal carcinoma
  Activity and response rate: only marginal activities and response rates
Malignant brain tumors
  Antineoplastic activity: significant antineoplastic activity
[5]; compared with other nitrosoureas
  Toxicity profile: more favorable toxicity profile in comparison with other nitrosoureas
[5]; phase II, malignant supratentorial gliomas
  Activity: demonstrated its activity
